Tested on: human PBMCs
Test: Stimulation of PBMCs with anti-CD1b antibody and/or IL-2, cytokines measured in culture supernatants
Format: cell-based
Settings: PMB at 10 µg/ml (60 U/ml); anti-CD16 as Fc γ receptor blocking antibody
Excerpt: PBMCs are then separated from whole blood or from leukapheresis products. Any method for separating mononuclear cells may be used. For example, the Ficoll separation method, i.e., a Ficoll-Paque density gradient is frequently used. For this purpose LSM1077 Lymphocyte Separation Medium (PAA, Pasching, Austria) in combination with Leucosep (greiner bio-one, Frickenhausen, Germany) can be used for the optimal separation of PBMCs.
The whole PBMCs or the CD56-positive PBMCs obtained are resuspended preferably at cell numbers of 1.0-1.5 x 10^6/ml in a cell culture medium such as RPMI-1640 (Lonza, Basel, Switzerland), AIM-V (Invitrogen, Carlsbad, CA, USA) or CellGro SCGM (CellGenix, Freiburg, Germany). The cell culture medium may be further supplemented with autologous or clinical quality heterologous serum or plasma at 1-20%. There is no limitation for the culture vessels used, which may be a plate, laboratory dish, flask, bag typically used for cell cultivation.
An antibody directed against CDlb (clone B-B5 from Diaclone, Besancon, France or clone WM25 from ImmunoKontact via AMS Biotechnology, Lugano, Switzerland) is added to these cultures. […] Activation as detected by the BD FastImmune (BD Biosciences, San Jose, CA, USA) of NK cells and T cells (both αß T cells and γδ T cells) occurs already within the first 12 to 16 hours. […]

polymyxin B [PMB] was tested, and the “effect on IFN-γ production / response induced by CDlb antibodies” value was “failed to abolish”.
